Assay results taken from article PMC5638823, “Structural insights into the competitive inhibition of the ATP-gated P2X receptor channel” (Nature Communications, 2017).

Target: T1, chicken P2X7 receptor (ckP2X7 WT) (Gallus gallus, UniProt A0A8V1A1T0)
T1 construct: gene P2RX7; ckP2X7 WT (NCBI XP_001235163), expressed in HEK-293 cells
Type: cell-based

T1 sequence (A0A8V1A1T0 entry or part of it): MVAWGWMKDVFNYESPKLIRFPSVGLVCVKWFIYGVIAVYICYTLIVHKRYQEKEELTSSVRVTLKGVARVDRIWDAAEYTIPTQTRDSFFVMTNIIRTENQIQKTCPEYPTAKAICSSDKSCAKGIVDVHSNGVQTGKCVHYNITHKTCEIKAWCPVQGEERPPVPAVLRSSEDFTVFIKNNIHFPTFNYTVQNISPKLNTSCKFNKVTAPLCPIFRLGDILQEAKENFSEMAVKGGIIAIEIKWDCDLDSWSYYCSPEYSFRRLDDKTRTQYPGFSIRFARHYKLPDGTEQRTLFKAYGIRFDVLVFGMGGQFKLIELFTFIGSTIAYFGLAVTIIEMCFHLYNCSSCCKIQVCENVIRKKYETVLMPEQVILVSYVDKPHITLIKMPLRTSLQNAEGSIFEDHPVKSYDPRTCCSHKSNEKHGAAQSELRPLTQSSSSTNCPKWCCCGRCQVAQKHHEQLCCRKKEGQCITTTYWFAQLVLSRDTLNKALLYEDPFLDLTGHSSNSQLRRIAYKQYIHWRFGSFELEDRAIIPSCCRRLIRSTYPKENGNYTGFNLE

Nc1ncnc2c1ncn2[C@@H]1O[C@H](COP(=O)(O)OP(=O)(O)OP(=O)(O)O)[C@@H](O)[C@H]1O [ATP]
whole-cell patch clamp, ATP-evoked currents in transfected HEK-293 cells: ATP activated biphasic currents and TNP-ATP blocked ATP-dependent currents
